What follows are molecules tested against ROCK2 (Homo sapiens (Human), UniProt O75116) (assay: ROCK assay (Caliper LABCHIP peptide phosphorylation)). Settings: 5 μM ATP, 1.5 μM peptide substrate.
Format: biochemical
Experimental: The effectiveness of compounds of the present invention as ROCK inhibitors can be determined in a 30 μL assay containing 20 mM HEPES, pH 7.5, 20 mM MgCl2, 0.015% Brij-35, 4 mM DTT, 5 μM ATP and 1.5 μM peptide substrate (FITC-AHA-AKRRRLSSLRA-OH) (SEQ ID No. 1). Compounds were dissolved in DMSO so that the final concentration of DMSO was <2%, and the reaction was initiated with Rho kinase variants. After incubation, the reaction was terminated by the addition of EDTA and the phosphorylated and non-phosphorylated peptides separated using a LABCHIP® 3000 Reader (Caliper Life Sciences). […] Compounds were tested in dose-response format, and the inhibition of kinase activity was calculated at each concentration of compound. The inhibition data were fit using a curve-fitting program to determine the IC50; i.e., the concentration of compound required to inhibit 50% of kinase activity. Representative Examples were tested in the ROCK assay described above and found having ROCK inhibitory activity. A range of ROCK inhibitory activity (IC50 values) of ≤50 μM (50000 nM) was observed. Table A below lists the ROCK IC50 values measured for the following examples.

ROCK2, sequence (O75116 whole entry, species assumed): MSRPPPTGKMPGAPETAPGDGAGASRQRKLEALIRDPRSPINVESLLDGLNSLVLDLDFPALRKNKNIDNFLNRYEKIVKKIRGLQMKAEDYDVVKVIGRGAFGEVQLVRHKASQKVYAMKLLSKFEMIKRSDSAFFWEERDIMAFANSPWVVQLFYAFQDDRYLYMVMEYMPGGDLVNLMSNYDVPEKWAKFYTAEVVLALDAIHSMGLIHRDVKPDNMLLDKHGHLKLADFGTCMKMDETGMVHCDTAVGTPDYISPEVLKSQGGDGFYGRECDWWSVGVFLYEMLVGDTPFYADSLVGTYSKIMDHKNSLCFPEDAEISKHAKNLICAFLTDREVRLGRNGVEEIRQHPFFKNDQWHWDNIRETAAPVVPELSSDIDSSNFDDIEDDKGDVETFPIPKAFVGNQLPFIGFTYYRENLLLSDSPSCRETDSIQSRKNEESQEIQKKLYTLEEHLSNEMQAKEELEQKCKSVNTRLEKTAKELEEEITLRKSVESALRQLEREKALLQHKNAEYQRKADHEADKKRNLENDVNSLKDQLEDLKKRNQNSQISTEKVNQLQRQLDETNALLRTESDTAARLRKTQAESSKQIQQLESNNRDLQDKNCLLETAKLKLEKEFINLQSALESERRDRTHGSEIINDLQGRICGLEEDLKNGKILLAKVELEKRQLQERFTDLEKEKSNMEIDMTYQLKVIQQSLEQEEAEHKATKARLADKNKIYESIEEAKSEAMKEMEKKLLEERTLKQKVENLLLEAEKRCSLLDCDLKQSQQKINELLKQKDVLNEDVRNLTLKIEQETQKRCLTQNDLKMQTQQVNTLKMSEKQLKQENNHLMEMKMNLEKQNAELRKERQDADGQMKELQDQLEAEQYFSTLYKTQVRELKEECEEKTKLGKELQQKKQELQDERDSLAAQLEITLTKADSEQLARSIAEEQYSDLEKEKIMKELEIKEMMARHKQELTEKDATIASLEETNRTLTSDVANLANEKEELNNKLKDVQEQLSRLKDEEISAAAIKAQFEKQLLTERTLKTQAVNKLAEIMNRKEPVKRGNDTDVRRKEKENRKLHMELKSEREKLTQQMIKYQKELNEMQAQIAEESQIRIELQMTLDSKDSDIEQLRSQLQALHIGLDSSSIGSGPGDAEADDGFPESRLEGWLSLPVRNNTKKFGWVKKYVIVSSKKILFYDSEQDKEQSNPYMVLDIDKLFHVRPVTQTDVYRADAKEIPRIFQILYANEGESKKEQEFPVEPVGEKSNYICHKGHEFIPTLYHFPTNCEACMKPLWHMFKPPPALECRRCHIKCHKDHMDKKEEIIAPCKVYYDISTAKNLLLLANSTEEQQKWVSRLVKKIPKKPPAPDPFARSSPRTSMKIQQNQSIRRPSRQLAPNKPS

Row | Compound | IC50 [nM]
1 | NC(=O)c1cccnc1O[C@H]1C[C@]2(C1)C[C@H](N1C(=O)C(=O)N(CC3CCC3)C1=O)C2 (stereo partly shown) [Example 63, 2-{[(αR)-6-[3-(cyclobutyl-methyl)-2,4,5-tri-oxoimidazolidin-1-yl]spiro[3.3]-heptan-2-yl]oxy}-pyridine-3-carbox-amide] | 617
2 | NC(=O)c1cccnc1O[C@H]1C[C@]2(C1)C[C@H](N1C(=O)NC(CC3CC(F)(F)C3)C1=O)C2 (stereo partly shown) [Example 46, 2-{[(αR)-6-{4-[(3,3-difluorocyclo-butyl)methyl]-2,5-dioxoimidazolidin-1-yl}spiro[3.3]-heptan-2-yl]oxy}-pyridine-3-carbox-amide] | 48
3 | NC(=O)c1cccnc1O[C@H]1C[C@]2(C1)C[C@H](N1C(=O)CN(c3cccc(F)c3)C1=O)C2 (stereo partly shown) [Example 85, 2-(((αR)-6-(3-(3-fluorophenyl)-2,5-dioxoimidazolidin-1-yl)spiro[3.3]heptan-2-yl)oxy)nicotinamide] | 6
4 | CC(C)CCN1C(=O)C(=O)N([C@H]2C[C@@]3(C[C@H](Oc4ncccc4C(N)=O)C3)C2)C1=O (stereo partly shown) [Example 65, 2-{[(αR)-6-[3-(3-methylbutyl)-2,4,5-trioxo-imidazolidin-1-yl]spiro[3.3]-heptan-2-yl]oxy}-pyridine-3-carbox-amide] | 968
5 | NC(=O)c1cccnc1O[C@H]1C[C@]2(C1)C[C@H](N1C(=O)NC(CC(C(F)(F)F)C(F)(F)F)C1=O)C2 (single isomer, unassigned) [Example 56, 2-{[(αR)-6-{2,5-dioxo-4-[3,3,3-trifluoro-2-(trifluoromethyl)-propyl]imidazol-idin-1-yl}spiro-[3.3]heptan-2-yl]-oxy}pyridine-3-carboxamide] | 256
6 | NC(=O)c1cccnc1O[C@H]1C[C@]2(C1)C[C@H](N1C(=O)NC(CCOCC(F)(F)F)C1=O)C2 (single isomer, unassigned) [Example 61] | 378
7 | NC(=O)c1cccnc1O[C@H]1C[C@]2(C1)C[C@H](N1C(=O)NC(CCOCC(F)(F)F)C1=O)C2 (single isomer, unassigned) [Example 50, 2-{[(αR)-6-{2,5-dioxo-4-[2-(2,2,2-trifluoroethoxy)-ethyl]imidazolidin-3-yl}spiro[3.3]-heptan-2-yl]oxy}-pyridine-3-carbox-amide] | 62
8 | NC(=O)c1cccnc1O[C@H]1C[C@]2(C1)C[C@H](N1C(=O)NC(CC3CCCC3)C1=O)C2 (single isomer, unassigned) [Example 52] | 160
9 | NC(=O)c1cccnc1O[C@H]1C[C@]2(C1)C[C@H](N1C(=O)CN(c3ccc(Cc4ccccc4)cc3)C1=O)C2 (stereo partly shown) [Example 84, 2-(((αR)-6-(3-(4-benzylphenyl)-2,5-dioxoimidazolidin-1-yl)spiro[3.3]heptan-2-yl)oxy)nicotinamide] | 17
10 | NC(=O)c1cccnc1O[C@H]1C[C@]2(C1)C[C@H](N1C(=O)CN(c3ccc(Oc4ccccc4)cc3)C1=O)C2 (stereo partly shown) [Example 83, 2-(((αR)-6-(2,5-dioxo-3-(4-phenoxyphenyl)imidazolidin-1-yl)spiro[3.3]heptan-2-yl)oxy)nicotinamide] | 9
11 | CC[C@H](C)[C@H]1CC(=O)N([C@H]2C[C@@]3(C[C@H](Oc4ncccc4C(N)=O)C3)C2)C(=O)N1 (stereo partly drawn) [Example 75, 2-{[(αR)-6-[(4R)-4-[(2S)-butan-2-yl]-2,6-dioxo-1,3-diazinan-1-yl]-spiro[3.3]heptan-2-yl]oxy}pyridine-3-carboxamide] | 138
12 | NC(=O)c1cccnc1O[C@H]1C[C@]2(C1)C[C@H](N1C(=O)NC(CC3CCCO3)C1=O)C2 (single isomer, unassigned) [Example 64, 2-{[(αR)-6-{2,5-dioxo-4-[(oxolan-2-yl)methyl]-imidazolidin-1-yl}-spiro[3.3]heptan-2-yl]oxy}pyridine-3-carboxamide] | 802
13 | CC(C)CN1CC(=O)N([C@H]2C[C@@]3(C[C@H](Oc4ncccc4C(N)=O)C3)C2)C1=O (stereo partly shown) [Example 13, 2-{[(αR)-6-[3-(2-methylpropyl)-2,5-dioxoimidazol-idin-1-yl]spiro-[3.3]heptan-2-yl]-oxy}pyridine-3-carboxamide] | 515
14 | CC(C)CN1C(=O)C(=O)N([C@H]2C[C@@]3(C[C@H](Oc4ncccc4C(N)=O)C3)C2)C1=O (stereo partly shown) [Example 67, 2-{[(αR)-6-[3-(2-methylpropyl)-2,4,5-trioxo-imidazolidin-1-yl]-spiro[3.3]heptan-2-yl]oxy}pyridine-3-carboxamide] | 1780
15 | NC(=O)c1cccnc1O[C@H]1C[C@]2(C1)C[C@H](N1C(=O)CN(c3ccc(C(F)(F)F)cc3)C1=O)C2 (stereo partly shown) [Example 87, 2-(((αR)-6-(2.5-dioxo-3-(4-(trifluoromethyl)phenyl)imidazolidin-1-yl)spiro[3.3]heptan-2-yl)oxy)nicotinamide] | 5
16 | [H][C@]1(Oc2ncccc2C(N)=O)C[C@]2(C[C@@H](N3C(=O)NCC(CC(C)C)C3=O)C2)C1 (stereo partly shown) [Example 79] | 131
17 | NC(=O)c1cccnc1O[C@H]1C[C@]2(C1)C[C@H](N1C(=O)NC(CC3CCCO3)C1=O)C2 (single isomer, unassigned) [Example 55] | 212

Next, values leading:

Row | IC50 [nM] | Compound
18 | 186 | CC(C)CCC1NC(=O)N([C@H]2C[C@@]3(C[C@H](Oc4ncccc4C(N)=O)C3)C2)C1=O (stereo partly shown) [Example 54, 2-{[(αR)-6-[4-(3-methylbutyl)-2,5-dioxoimidazolidin-1-yl]spiro[3.3]-heptan-2-yl]oxy}-pyridine-3-carbox-amide]
19 | 6 | C[C@H](C[C@@H]1NC(=O)N([C@H]2C[C@@]3(C[C@H](Oc4ncccc4C(N)=O)C3)C2)C1=O)C(F)(F)F (stereo partly drawn) [Example 92, 2-(((αR)-6-((S)-2,5-dioxo-4-((R)-3,3,3-trifluoro-2-methylpropyl)imidazolidin-1-yl)spiro[3.3]heptan-2-yl)oxy)nicotinamide]
20 | 89 | CSCC[C@@H]1NC(=O)N([C@H]2C[C@@]3(C[C@H](Oc4ncccc4C(N)=O)C3)C2)C1=O (stereo partly drawn) [Example 30, 2-{[(αR)-6-[(4S)-4-[2-(methyl-sulfanyl)ethyl]-2,5-dioxoimidazol-idin-1-yl]spiro-[3.3]heptan-2-yl]-oxy}pyridine-3-carboxamide]
21 | 1500 | NC(=O)c1cccnc1O[C@H]1C[C@]2(C1)C[C@H](N1C(=O)NC(CCO)C1=O)C2 (stereo partly shown) [Example 18, 2-{[(αR)-6-[2,5-dioxo-4-(2-hydroxyethyl)-imidazolidin-1-yl]spiro[3.3]-heptan-2-yl)oxy}-pyridine-3-carboxamide]
22 | 21 | C/C(=C\c1ccccc1)CC1NC(=O)N([C@H]2C[C@@]3(C[C@H](Oc4ncccc4C(N)=O)C3)C2)C1=O (stereo partly shown) [Example 90, 2-(((αR)-6-(4-((E)-2-methyl-3-phenylallyl)-2,5-dioxoimidazolidin-1-yl)spiro[3.3]heptan-2-yl)oxy)nicotinamide]
23 | 44 | [H][C@]1(Oc2ncccc2C(N)=O)C[C@]2(C[C@@H](N3C(=O)NC(CCC4CC4)C3=O)C2)C1 (stereo partly shown) [Example 37]
24 | 5 | CCC(CC)CC1NC(=O)N([C@H]2C[C@@]3(C[C@H](Oc4ncccc4C(N)=O)C3)C2)C1=O (single isomer, unassigned) [Example 38, 2-{[(αR)-6-(4-(2-ethylbutyl)-2,5-dioxoimidazolidin-1-yl]spiro[3.3]-heptan-2-yl]oxy}-pyridine-3-carbox-amide]
25 | 29 | [H][C@]1(Oc2ncccc2C(N)=O)C[C@]2(C[C@@H](N3C(=O)NC(CC(C)Cc4ccccc4)C3=O)C2)C1 (stereo partly drawn) [Example 91, 2-(((aR)-6-(4-(2-methyl-3-phenylpropyl)-2,5-dioxoimidazolidin-1-yl)spiro[3.3]heptan-2-yl)oxy)nicotinamide]
26 | 99 | NC(=O)c1cccnc1O[C@H]1C[C@]2(C1)C[C@H](N1C(=O)NC(CCC(F)(F)F)C1=O)C2 (stereo partly shown) [Example 49, 2-{[(αR)-6-[2,5-dioxo-4-(3,3,3-trifluoropropyl)-imidazolidin-1-yl]-spiro[3.3]heptan-2-yl]oxy}pyridine-3-carboxamide]
27 | 6 | CC(C[C@@H]1NC(=O)N([C@H]2C[C@@]3(C[C@H](Oc4ncccc4C(N)=O)C3)C2)C1=O)c1ccccc1 (stereo partly drawn) [Example 95, 2-(((αR)-6-((S)-2,5-dioxo-4-(2-phenyl-propyl)imidazolidin-1-yl)spiro[3.3]heptan-2-yl)oxy)nicotinamide]
28 | 539 | NC(=O)c1cccnc1OC1CC2(C1)CC(N1C(=O)N[C@H](Cc3ccccc3)C1=O)C2 (stereo partly drawn) [Example 34, 2-({6-[(4R)-4-benzyl-2,5-dioxo-imidazolidin-1-yl]-spiro[3.3]heptan-2-yl}oxy)pyridine-3-carboxamide]
29 | 9 | NC(=O)c1cccnc1OC1CC2(C1)CC(N1C(=O)CN(c3ccccc3)C1=O)C2 (stereo not shown) [Example 3, 2-{[6-(2,5-dioxo-3-phenylimidazol-idin-1-yl)spiro-[3.3]heptan-2-yl]-oxy}pyridine-3-carboxamide]
30 | 25 | NC(=O)c1cccnc1O[C@H]1C[C@]2(C1)C[C@H](N1C(=O)NC(CCc3ccccc3)C1=O)C2 (single isomer, unassigned) [Example 5, 2-{[(αR)-6-[2,5-dioxo-4-(2-phenylethyl)-imidazolidin-1-yl]spiro[3.3]-heptan-2-yl]oxy}-pyridine-3-carboxamide]
31 | 19 | CCC(C)CC1NC(=O)N([C@H]2C[C@@]3(C[C@H](Oc4ncccc4C(N)=O)C3)C2)C1=O (stereo partly shown) [Example 41, 2-{[(αR)-6-[4-(2-methylbutyl)-2,5-dioxoimidazolidin-1-yl]spiro[3.3]-heptan-2-yl]oxy}-pyridine-3-carbox-amide]
